Test results published in publication PMC8899577, “Targeting the anti-apoptotic Bcl-2 family proteins: machine learning virtual screening and biological evaluation of new small molecules” (Theranostics, 2022).

Legend:
M14 cells = assay: Flow cytometry subG1 peak (PI staining), M14; type: cell-based, Human; details: 20 µM for 72 h
Procedure: (§1) Flow cytometric analysis (BD Accuri™ C6, BD Biosciences) was performed to evaluate cell cycle distribution by propidium iodide (PI) staining, and cell viability by using the PI dye exclusion assay as previously reported.
(§2) Figure 5 Analysis of apoptosis induction by IS20 and IS21 in leukemia, melanoma and NSCLC cells. […] (A-F) Reported images are representative of two independent experiments with similar results. HSP72/73 or α-Tubulin are shown as loading and transferring control. (G) Flow cytometric quantification of cells in the subG1 peak of cell cycle distribution by propidium iodide staining in HL60 cell line treated with IS20 or IS21 (20 μM for 24 h) and in M14, H1299 and MDA-MB-231 cell lines treated with IS20 or IS21 (20 μM for 72 h). Data are reported as mean ± SD of three independent experiments. p-values were calculated between control (Ctrl) and treated cells, * p < 0.05. (H) Flow cytometric quantification of cells in the subG1 peak by propidium iodide staining in M14 and H1299 cell lines treated with IS20 or IS21 (20 μM, 72 h) in presence or absence of the pan caspase inhibitor z-VAD (50 μM). p-values were calculated between treated control (Ctrl) cells, # p < 0.01, ## p < 0.001 or between cells treated with IS20 or IS21 alone or in combination with z-VAD, * p < 0.05, ** p < 0.005. (G-H) Data are reported as mean of two (H) or three (G) experiments ± SD.

H1299 cells [1] = assay: Clonogenic assay, H1299; type: cell-based, Human; details: 20 µM for 72 h, respect to controls
Procedure: (§3) The effect of compounds on cell viability was performed by measuring 3-[4,5-dimethylthiazol-2-yl]-2,5-diphenyltetrazolium bromide inner salt (MTT, Sigma-Aldrich) dye absorbance (solid tumor cells) or by quantization of ATP present in metabolically active cells using CellTiter-Glo® Luminescent (Promega, Fitchburg, Wisconsin, USA) (hematologic cells) following manifacturer's protocol. To evaluate the cell colony-forming ability, cell suspension from different samples was seeded into 60-mm Petri dishes. After 10 days, colonies were stained with 2% methylene blue in 95% ethanol and counted (1 colony > 50 cells). The surviving fractions were calculated as the ratio of absolute survival of the treated sample/survival of DMSO-treated control sample.
(§4) Figure 4 Analysis of the effect of IS20 and IS21 on cell viability, clonogenic ability and tumor sphere formation in cancer cells. […] (B) Representative images and quantification of clonogenic ability evaluated in M14 and H1299 cells treated with IS20 or IS21 (20 μM for 72 h). […] (C) Quantification of tumor sphere formation of M14 and H1299 cells treated with IS20 or IS21 (20 μM for 72 h). […] (A-C) Data are reported as mean ± SD of three independent experiments. p-values were calculated between control (Ctrl) and treated cells, ** p < 0.001 and *** p < 0.0001.

H1299 cells [2] = assay: Tumor sphere formation assay, H1299; type: cell-based, Human; details: 20 µM for 72 h, respect to controls
Procedure: For tumor sphere assay, cells were recovered after treatment, counted and seeded in 24-well ultralow attachment surface plates at a density of 5 × 10^2 cells/well and cultured as previously described. After 10 days, spheres were photographed and counted. The percentage of spheres normalized to the number of seeded cells was calculated.
Figure 4 Analysis of the effect of IS20 and IS21 on cell viability, clonogenic ability and tumor sphere formation in cancer cells. (A) Analysis of cell viability by MTT assay in M14, H1299, HCT116 and MDA-MB-231 cell lines treated with IS20 or IS21 (20 μM for 72 h). The results are reported as “viability of treated cells/viability of control cells (Ctrl)” × 100. (B) Representative images and quantification of clonogenic ability evaluated in M14 and H1299 cells treated with IS20 or IS21 (20 μM for 72 h). Results are reported as percentage of clonogenicity of treated versus control cells. (C) Quantification of tumor sphere formation of M14 and H1299 cells treated with IS20 or IS21 (20 μM for 72 h). Results are reported as percentage of tumor sphere formation of treated versus control. (A-C) Data are reported as mean ± SD of three independent experiments. p-values were calculated between control (Ctrl) and treated cells, ** p < 0.001 and *** p < 0.0001.

[3] = tested on: MDA-MB-231 breast carcinoma cells; assay: Cell viability by MTT, MDA-MB-231; type: cell-based, Human; details: 20 µM for 72 h, vs control
Procedure: as §3, §4

H1299 cells [4] = assay: Flow cytometry subG1 peak (PI staining), H1299; type: cell-based, Human; details: 20 µM for 72 h
Procedure: as §1, §2

Bcl-2 = Bcl-2 (Homo sapiens, UniProt P10415); assay: SPR binding to immobilized Bcl-2; details: for Kd: SPR, 25 °C, 2-site fit, highest affinity site
Procedure: FastStep experiments were performed with a SensiQ Pioneer apparatus. Bcl-2 immobilization on COOH5 sensorchips was carried out essentially as previously reported, [40]. All the experiments were carried out at 25 °C in degassed HEPES 20 mM, pH 7.4, NaCl 150 mM, 0.005% surfactant P20 + 2% DMSO (HBSP2%D). […] Each sensorgram is the average of at least three experiments. The decrease in Response Units (RU) after 165 s indicates analyte dissociation from the immobilized Bcl-2 upon HSBP2%D buffer injection. Control SPR experiments were carried out measuring sensorgrams on Bcl-xL and Mcl-1 (ligands) immobilized on COOH5 sensorchips as previously reported at 25 °C in degassed HBSP2%D buffer. […] Each sensorgram is the average of at least three experiments. The decrease in RU after 180 s indicates analyte dissociation from the immobilized ligands upon HSBP2%D buffer injection. Kinetic evaluation of the sensorgrams was carried out using the Qdat 4.0 program; best fittings were obtained with 2 sites and indicated in red (reported KD values refer to dissociation constants of the highest affinity site).
Figure 2 SPR analysis of the interaction between putative inhibitors of Bcl-2 anti-apoptotic members and Bcl-2 protein. Bcl-2 was immobilized via amine coupling onto a COOH5 sensorchip; Bcl-2 family inhibitors (analytes) were injected at a flow rate = 100 μL/min, at the following concentrations. 0-30 s: 0.625 μM; 31-60 s: 1.25 μM; 61-90 s: 2.5 μM; 91-120 s: 5 μM; 121-150 s: 10 μM; 151-165 s: 20 μM. The increase in Response Units (RU) relative to baseline indicates complex formation between the immobilized Bcl-2 ligand and the analytes upon Bcl-2 family inhibitors injection. The decrease in RU after 165 s indicates analyte dissociation from the immobilized Bcl-2 upon buffer injection. Full fittings with 2 sites are indicated in red. The fitted KD values are the following.

H1299 NSCLC cells = assay: Cell viability by MTT, H1299; type: cell-based, Human; details: 20 µM for 72 h, vs control
Procedure: as §3, §4

normal human fibroblasts = assay: Viability of normal fibroblasts; type: cell-based; details: data not shown

Bcl-2, sequence (P10415 whole entry): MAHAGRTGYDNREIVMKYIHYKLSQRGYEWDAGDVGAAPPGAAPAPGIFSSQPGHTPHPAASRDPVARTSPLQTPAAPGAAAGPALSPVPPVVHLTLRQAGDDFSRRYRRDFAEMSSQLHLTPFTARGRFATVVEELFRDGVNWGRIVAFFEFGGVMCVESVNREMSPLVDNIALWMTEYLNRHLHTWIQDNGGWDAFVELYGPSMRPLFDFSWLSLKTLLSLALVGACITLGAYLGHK

Row | SMILES | subG1 peak of cell cycle distribution, M14 (M14 cells) | decrease of cell colony formation, H1299 (H1299 cells [1]) | decrease of sphere formation capacity, H1299 (H1299 cells [2]) | cell viability MDA-MB-231 [3] | subG1 peak of cell cycle distribution, H1299 (H1299 cells [4]) | Kd (Bcl-2) [nM] | selectivity for Bcl-2 than for Bcl-xL (Bcl-2; selectivity index from KD) | selectivity for Bcl-2 than for Mcl-1 (Bcl-2; selectivity index from KD) [times] | cell viability H1299 (H1299 NSCLC cells) | effect on normal human fibroblasts viability (normal human fibroblasts)
1 | CCCCCOc1ccc(C2/C(=C(\O)c3ccc4c(c3)CC(C)O4)C(=O)C(=O)N2c2nnc(SCc3ccc(Cl)cc3)s2)cc1OCC (stereo not shown) [IS21] | presence of subG1 peak | 80-90% | about 60% | not significantly perturbed | presence of subG1 peak | 190 ± 70 | about 2.7 times | ~6 | significant inhibition | no significant effect
2 | CCCCOc1ccc(C2/C(=C(\O)c3ccc4c(c3)CC(C)O4)C(=O)C(=O)N2c2nnc(SCc3ccc(Cl)cc3)s2)cc1OCC (stereo not shown) [IS20] | presence of subG1 peak | 80-90% | about 60% | not significantly perturbed | presence of subG1 peak | 320 ± 90 |  | 12 | significant inhibition | no significant effect
